For orientation: IC50 means the midpoint of a concentration-inhibition curve. Read a high IC50 as weaker potency in that assay. The Kd is the free concentration of one partner at which half of the binding sites on the other are occupied at equilibrium, for simple one-to-one binding. High values mean a looser complex, low ones a tighter complex.

In experiment [1] the test system is ERK1/2 phosphorylation in HeLa cells. The experiment can be described thus: EGF-induced ERK1/2 activation, Western blot, HeLa. The format is cell-based, human. The settings on record: 10-40 μM for 24 h, EGF 20 ng/ml 5 min. The text has this:
(§1) After centrifugation, the supernatant was collected.
Background: In western blotting, separated proteins are transferred to a membrane and probed.

For experiment [2], the system named is ERK1/2 activation in HEK293T cells expressing H-RasV12. Description: RasV12-induced ERK1/2 activation in transfected HEK293T. It counts as cell-based, human. The note with it: Fumos 20 μM or U0126 10 μM, 24 h. On the procedure:
DMSO treatment as control. […] (c) Fumos inhibits EGF-induced Ras activation.
HEK293T, MDA-MB-231and HeLa cell lines were obtained from CRC/PUMC. Cell lines were maintained in Dulbecco’s modified Eagle’s medium supplemented with 10% fetal bovine serum. Transfections were performed in 6-well plates according to manufacturer (Invitrogen Lipofectamine LTX).Briefly, for transient transfection of HEK293T cells, subconfluent cells in 6-well plates were incubated with 2 ml of Dulbecco’s modified Eagle’s medium containing 2.5 μg of total DNA and 7.5 μl of each Lipofectamine and Plus reagent (Invitrogen) and then serum-starved in DMEM/0.1% bovine serum albumin for 18 h. After Fumos treatment for 24 h, cells were stimulated for 5 min with 20 ng/ml EGF.
as §1

A further experiment concerns the target STEP (Homo sapiens, UniProt P54829). The experiment can be described thus: biochemical. On the procedure:
(§2) Plasmids for expression of His-tag fusion proteins of human PTP were constructed in PET-28a by PCR subcloning techniques. The constructions contain only the PTP domain except Full-length Shp2. Full-length Shp2 containing Tyr279-to-Ala mutant was generated by PCR-based mutagenesis. All constructs were verified by DNA sequencing. PTP-His fusion proteins were expressed in Escherichia coli BL21 and lysed in the buffer (50 mM NaH2PO4, 300 mM NaCl, 250 mM imidazole, 1 mM dithiothreitol plus 5% glycerol), purified with Ni-NTA Magnetic Agarose Beads (Qiagen). The His-tag recombinant purification protocol was carried out according to the purification under native conditions of the QIAexpress System.
(§3) The assay was set in wells of 96-well plate with a final volume of 100 μl of reaction mixture containing 10 mM of NaAc-HAc, 1 mM of ethylene diamine tetraacetic acid, 1 mM of DL-dithiothreitol and 2% of dimethyl sulfoxide, pH 5.5. Activity of the enzyme was assayed by incubating recombinant PTP protein or mutant PTP with various concentrations of Fumos in the mixture at 37 °C for 30 min. Absorbance at 405 nm was detected immediately after addition of varied concentrations of substrate, p-nitrophenyl phosphate (pNPP) to each corresponding well.

The next experiment addresses PTPRA (Homo sapiens, UniProt P18433). Description: biochemical. The protocol: as §2, §3
A further experiment has as its system HeLa cells. Description: Transwell invasion assay, HeLa. The settings on record: 4 and 14 μM, 24 h, EGF in lower chamber. The format is cell-based, human. The protocol: The invasion assay was performed in Transwell chambers according to Corning methods. Briefly, the upper chamber of a Transwell insert ([…] pore size) was coated with 40 μl 1:6 mixture of Matrigel (BD Biosciences, Bedford): Opti-MEM (Invitrogen) for MDA-MB-231 and 40 μl 1:12 mixture of Matrigel: Opti-MEM (Invitrogen) for HeLa cells and dried for 2 h at 37 °C. The lower chamber was filled with serum-free media containing 10 ng/ml EGF. Cells were seeded into upper chamber at a density 5 × 10^4 cells/ml per well in serum-free media. Cells were treated with series concentrations of Fumos for 24 h. The top aspect of the membrane was gently swabbed the inside of each insert using cotton swabs, and cells that invaded on the lower surface of the membrane were fixed using methanol and stained with crystal violet (Beyotime Institute of Biotechnology). Random fields were counted and photographed by microscope (Olympus).

A further experiment deals with T1, Shp2-Y279A (Homo sapiens, UniProt Q06124, Y279A).
T1 sequence (Q06124 1-593 Y279A): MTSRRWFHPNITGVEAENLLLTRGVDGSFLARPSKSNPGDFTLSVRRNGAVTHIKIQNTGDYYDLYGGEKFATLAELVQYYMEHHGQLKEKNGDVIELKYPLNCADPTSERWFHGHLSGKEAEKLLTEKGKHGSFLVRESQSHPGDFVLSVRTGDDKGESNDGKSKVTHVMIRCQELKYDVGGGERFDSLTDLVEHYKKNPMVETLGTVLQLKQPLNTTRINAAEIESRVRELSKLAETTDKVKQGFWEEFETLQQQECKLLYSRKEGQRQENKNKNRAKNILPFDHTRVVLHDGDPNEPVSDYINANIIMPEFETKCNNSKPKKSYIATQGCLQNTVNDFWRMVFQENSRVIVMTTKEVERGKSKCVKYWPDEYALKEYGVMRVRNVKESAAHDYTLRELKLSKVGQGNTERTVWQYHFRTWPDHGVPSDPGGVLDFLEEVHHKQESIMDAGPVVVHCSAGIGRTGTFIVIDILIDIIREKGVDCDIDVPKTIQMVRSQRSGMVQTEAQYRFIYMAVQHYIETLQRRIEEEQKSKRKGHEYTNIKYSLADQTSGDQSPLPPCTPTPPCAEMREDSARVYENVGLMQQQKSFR
The experiment can be described thus: Surface plasmon resonance analysis, Shp2-Y279A. It counts as binding. The protocol: One small molecule (10 mM) was spotted on the 3D sensor chip. Positive and negative controls on the chip were monitored for binding kinetics to verify immobilization. All experiments were performed using Plexera’s Plex Array SPRi instrumentation, visualized using Instrument Control software (ICS) and analyzed using Plexera Data Explorer software.
Proteins were injected in the following order: Shp2 full-length protein (12 nM, 36 nM, 108 nM, 324 nM), Shp2 Y279A protein (35 nM, 70 nM,140 nM, 280 nM, 560 nM). Each protein was injected at a flow rate of 1 μl/sec. The association duration was 200 sec and dissociation duration was 300 sec. Regeneration between injections was performed with 600 μl of 10 mM glycine-HCl, pH = 2.0. The data were analyzed by Plexera Data Explorer software.

For the next experiment, the target named is PTPH1 (Homo sapiens, UniProt P26045). The experiment can be described thus: in vitro PTP assay (pNPP), PTPH1. It counts as biochemical. On the procedure:
as §2, §3

For a further experiment, the target named is T2, Shp2 PTP domain (Homo sapiens, UniProt Q06124).
T2 sequence (Q06124 247-517 limits assumed): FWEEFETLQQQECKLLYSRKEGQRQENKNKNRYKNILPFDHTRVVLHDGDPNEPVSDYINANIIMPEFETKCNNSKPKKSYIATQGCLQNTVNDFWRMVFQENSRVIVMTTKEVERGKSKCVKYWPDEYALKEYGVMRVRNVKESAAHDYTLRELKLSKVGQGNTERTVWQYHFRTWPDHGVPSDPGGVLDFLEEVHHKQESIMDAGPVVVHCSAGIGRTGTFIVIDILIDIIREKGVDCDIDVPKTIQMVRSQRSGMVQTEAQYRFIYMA
The experiment can be described thus: in vitro PTP assay (pNPP), Shp2 PTP domain. It counts as biochemical. On the procedure:
as §2, §3

Where [3] appears, read: SPR, Fumos immobilized, Shp2-Y279A injected.

PTPH1, sequence (P26045 646-901 limits assumed): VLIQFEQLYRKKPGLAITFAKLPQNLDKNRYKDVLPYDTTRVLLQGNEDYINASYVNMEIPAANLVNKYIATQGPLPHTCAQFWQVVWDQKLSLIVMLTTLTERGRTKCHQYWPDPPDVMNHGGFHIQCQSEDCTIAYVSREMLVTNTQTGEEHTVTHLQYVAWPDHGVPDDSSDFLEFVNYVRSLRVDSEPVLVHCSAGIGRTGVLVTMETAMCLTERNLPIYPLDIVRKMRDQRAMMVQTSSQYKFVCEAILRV
PTPRA, sequence (P18433 241-501 limits assumed): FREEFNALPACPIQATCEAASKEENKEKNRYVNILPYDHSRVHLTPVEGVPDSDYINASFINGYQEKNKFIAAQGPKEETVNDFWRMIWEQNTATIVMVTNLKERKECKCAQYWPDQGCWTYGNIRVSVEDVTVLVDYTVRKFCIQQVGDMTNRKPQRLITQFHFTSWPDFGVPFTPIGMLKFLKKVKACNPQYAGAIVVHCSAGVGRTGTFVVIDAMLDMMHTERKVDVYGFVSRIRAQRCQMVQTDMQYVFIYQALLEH
STEP, sequence (P54829 300-555 limits assumed): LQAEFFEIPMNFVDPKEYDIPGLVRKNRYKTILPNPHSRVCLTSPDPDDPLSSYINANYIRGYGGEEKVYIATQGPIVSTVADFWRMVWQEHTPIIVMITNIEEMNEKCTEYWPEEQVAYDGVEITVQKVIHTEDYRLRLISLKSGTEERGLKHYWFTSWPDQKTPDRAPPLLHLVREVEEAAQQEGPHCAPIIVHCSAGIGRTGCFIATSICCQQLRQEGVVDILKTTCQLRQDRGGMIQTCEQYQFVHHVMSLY

As for `CC[C@@H](C)C[C@@H](C)/C=C(C)/C=C/C=C/C=C(\C)C(=O)c1c(O)c(-c2ccc(O)cc2)cn(O)c1=O` [Fumos, Fumosorinone], the “EGF-induced ERK1/2 phosphorylation” value in experiment [1] is “drastically decreased”. For the same compound, the “RasV12-induced ERK1/2 activation” value in experiment [2] is “did not inhibit”. Besides, the 50% inhibitory concentration (IC50) was greater than 100 µM on STEP (STEP PTP domain), greater than 100 µM against PTPRA (PTPRA PTP domain), greater than 100 µM on PTPH1 (PTPH1 PTP domain) and 6.31 ± 0.52 µM against Shp2 PTP domain. Further, the IC50 selective against STEP (STEP relative to Shp2 PTP domain) was greater than 16; at PTPRA (PTPRA relative to Shp2 PTP domain), greater than 16; on PTPH1 (PTPH1 relative to Shp2 PTP domain), greater than 16; against Shp2 PTP domain (Shp2 relative to Shp2 PTP domain), 1. In addition, the “cell invasion (Transwell)” value with HeLa cells was “significantly inhibited”. Further, the “affinity of Shp2-Y279A relative to Shp2-WT” value at Shp2-Y279A (SPR KD comparison) was “nine-fold less affinity”. For the same compound, the “Ka (association rate)” value at Shp2-Y279A (setting [3]) is reported as 5.06 × 10^4 M^−1 S^−1. The dissociation constant (Kd) at Shp2-Y279A (setting [3]) turned out to be 0.368 µM. Further, the “Kd (dissociation rate)” value on Shp2-Y279A (setting [3]) is 1.86 × 10^−2 S^−1.
